This is an account of results in ChEMBL document CHEMBL1151792, “Development of novel tail-modified anandamide analogs” (Bioorg Med Chem Lett, 2008).

For one test, the target named is Cannabinoid receptor 1 (Rattus norvegicus, UniProt P20272). It counts as cell membranes, Brain, Membrane.
The target of a further test is Cannabinoid receptor 2 (Mus musculus, UniProt P47936). The experiment in a line: Displacement of [3H]CP-55940 from cannabinoid CB2 receptor in mouse spleen membrane. The class given is cell membranes.
Cannabinoid receptor 2, sequence (P47936 whole entry): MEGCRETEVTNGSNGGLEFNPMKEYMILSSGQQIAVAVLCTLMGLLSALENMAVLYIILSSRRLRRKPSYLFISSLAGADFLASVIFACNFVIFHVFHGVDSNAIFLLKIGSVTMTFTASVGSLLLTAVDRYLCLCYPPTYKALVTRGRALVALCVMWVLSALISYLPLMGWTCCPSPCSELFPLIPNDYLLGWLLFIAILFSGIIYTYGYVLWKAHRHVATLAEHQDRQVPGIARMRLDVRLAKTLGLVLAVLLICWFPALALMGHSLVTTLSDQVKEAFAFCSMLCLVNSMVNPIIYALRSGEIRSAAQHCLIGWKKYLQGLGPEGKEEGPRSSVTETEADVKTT

One may read the Ki as the dissociation constant of the complex between target and ligand, obtained from inhibition or displacement.

Cannabinoid receptor 1, sequence (P20272 whole entry): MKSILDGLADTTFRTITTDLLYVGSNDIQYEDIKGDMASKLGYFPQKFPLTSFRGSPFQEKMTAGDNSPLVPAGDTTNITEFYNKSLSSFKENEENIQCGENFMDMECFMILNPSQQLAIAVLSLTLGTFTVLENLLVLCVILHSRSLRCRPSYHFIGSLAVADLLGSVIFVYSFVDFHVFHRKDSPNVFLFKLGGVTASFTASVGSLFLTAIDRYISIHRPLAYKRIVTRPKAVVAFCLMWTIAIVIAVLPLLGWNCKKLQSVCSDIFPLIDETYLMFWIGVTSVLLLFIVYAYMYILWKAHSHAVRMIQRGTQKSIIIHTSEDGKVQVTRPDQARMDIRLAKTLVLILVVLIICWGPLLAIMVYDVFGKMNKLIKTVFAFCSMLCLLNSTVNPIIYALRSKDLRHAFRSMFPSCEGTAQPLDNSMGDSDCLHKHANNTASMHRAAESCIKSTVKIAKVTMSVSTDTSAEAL
Description for Cannabinoid receptor 1: Displacement of [3H]CP-55940 from cannabinoid CB1 receptor in rat brain membrane in presence of phenylmethanesulfonyl fluoride

Take `C[C@H](CO)NC(=O)CCC/C=C\C/C=C\C/C=C\C/C=C\CCCCc1ccco1`: the Ki turned out to be 325 nM on Cannabinoid receptor 1 and 750 nM at Cannabinoid receptor 2.
For the compound `C[C@H](CO)NC(=O)CCC/C=C\C/C=C\C/C=C\C/C=C\CCCCc1cccc2ccccc12`, the Ki on Cannabinoid receptor 1 came out at 678 nM; at Cannabinoid receptor 2, 4000 nM.
Consider `C[C@H](CO)NC(=O)CCC/C=C\C/C=C\C/C=C\C/C=C\CCCCc1cccc(Cl)c1`, for which the results for the Ki on Cannabinoid receptor 1 and at Cannabinoid receptor 2 were 89.4 nM and 605 nM, respectively.
As to `C[C@H](CO)NC(=O)CCC/C=C\C/C=C\C/C=C\C/C=C\Cc1ccccc1`, the Ki stood at 349 nM at Cannabinoid receptor 1 and 826 nM on Cannabinoid receptor 2.
Take `Cc1cccc(CCCC/C=C\C/C=C\C/C=C\C/C=C\CCCC(=O)N[C@H](C)CO)c1`: the values for the Ki at Cannabinoid receptor 1 and on Cannabinoid receptor 2 were 344 nM and 840 nM, respectively.
The corresponding values for `C[C@H](CO)NC(=O)CCC/C=C\C/C=C\C/C=C\C/C=C\CCCCc1ccoc1` are 12 nM and 1030 nM.
In the case of `C[C@H](CO)NC(=O)CCC/C=C\C/C=C\C/C=C\C/C=C\CCCCCc1ccco1`, the Ki came to 561 nM at Cannabinoid receptor 1 and 3260 nM at Cannabinoid receptor 2.
`C[C@H](CO)NC(=O)CCC/C=C\C/C=C\C/C=C\C/C=C\CCCCCc1ccoc1`: the inhibition constant (Ki) came out at 170 nM at Cannabinoid receptor 1 and 869 nM on Cannabinoid receptor 2.
In the case of `C[C@H](CO)NC(=O)CCC/C=C\C/C=C\C/C=C\C/C=C\CCCCc1cccc(I)c1`, the Ki at Cannabinoid receptor 1 was found to be 533 nM; on Cannabinoid receptor 2, 1560 nM.
For the compound `C[C@H](CO)NC(=O)CCC/C=C\C/C=C\C/C=C\C/C=C\CCCCc1ccccc1Br`, the Ki at Cannabinoid receptor 1 stood at 170 nM.
On to `C[C@H](CO)NC(=O)CCC/C=C\C/C=C\C/C=C\C/C=C\CCCCCc1ccccc1`, for which the Ki on Cannabinoid receptor 1 came to 76.6 nM; at Cannabinoid receptor 2 it was 241 nM.
Consider `C[C@H](CO)NC(=O)CCC/C=C\C/C=C\C/C=C\C/C=C\CCCc1ccccc1`, for which the results for the Ki on Cannabinoid receptor 1 and on Cannabinoid receptor 2 were 69.2 nM and 534 nM, respectively.
On to `C[C@H](CO)NC(=O)CCC/C=C\C/C=C\C/C=C\C/C=C\CCCCc1cccc(C(F)(F)F)c1`, for which the Ki at Cannabinoid receptor 1 is 284 nM; at Cannabinoid receptor 2, 2040 nM.
`C[C@H](CO)NC(=O)CCC/C=C\C/C=C\C/C=C\C/C=C\CCc1ccccc1`: the results for the Ki on Cannabinoid receptor 1 and on Cannabinoid receptor 2 were 241 nM and 335 nM, respectively.
Consider `C[C@H](CO)NC(=O)CCC/C=C\C/C=C\C/C=C\C/C=C\CCCCc1ccc(Br)cc1`, for which the values for the Ki on Cannabinoid receptor 1 and at Cannabinoid receptor 2 were 8.9 nM and 250 nM, respectively.
The corresponding values for `C[C@H](CO)NC(=O)CCC/C=C\C/C=C\C/C=C\C/C=C\CCCCc1ccccc1` are 13.3 nM and 1120 nM.
Consider `C[C@H](CO)NC(=O)CCC/C=C\C/C=C\C/C=C\C/C=C\CCCCc1cccc(Br)c1`, for which the results for the Ki on Cannabinoid receptor 1 and on Cannabinoid receptor 2 were 95.3 nM and 1050 nM, respectively.
